Measured values taken from ChEMBL document CHEMBL1909046, “DrugMatrix in vitro pharmacology data”.
pIC50, pKi: −log10 of the molar value.

Legend:
[1] = DRUGMATRIX: Atrial Natriuretic Factor (ANF) radioligand binding (ligand: [125I] ANF (rat)); assay type: cell membranes, Cavia porcellus, Dunkin-Hartley, Adrenal gland, Membrane; details: Not Active = under 50% inhibition at 10 µM
[2] = DRUGMATRIX: Calcium Channel Type L, Benzothiazepine radioligand binding (ligand: [3H] Diltiazem); assay type: cell membranes, Rattus norvegicus, Wistar, Brain, Membrane; details: Not Active = under 50% inhibition at 10 µM
Substance-P receptor = Substance-P receptor (Homo sapiens, UniProt P25103); assay type: cell membranes, Membrane; details: cho; further: in other assays of this panel Not Active means under 50% inhibition at 10 µM
[3] = target: T1, C-X-C chemokine receptor type 1 (Homo sapiens, UniProt P25024); further: in other assays of this panel Not Active means under 50% inhibition at 10 µM
T1 sequence (P25024 whole entry): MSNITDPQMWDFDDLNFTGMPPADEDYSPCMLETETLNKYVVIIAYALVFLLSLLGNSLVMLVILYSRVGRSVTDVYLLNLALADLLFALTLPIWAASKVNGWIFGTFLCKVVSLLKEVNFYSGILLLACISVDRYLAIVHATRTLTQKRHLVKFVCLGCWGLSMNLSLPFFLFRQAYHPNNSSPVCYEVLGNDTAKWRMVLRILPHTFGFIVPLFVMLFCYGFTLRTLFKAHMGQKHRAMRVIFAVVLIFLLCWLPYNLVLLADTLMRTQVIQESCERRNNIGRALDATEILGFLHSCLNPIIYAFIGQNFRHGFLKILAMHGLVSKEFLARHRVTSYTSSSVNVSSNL

Melanocortin receptor 4 = Melanocortin receptor 4 (Homo sapiens, UniProt P32245); assay type: cell membranes, Membrane; details: hek293; further: in other assays of this panel Not Active means under 50% inhibition at 10 µM
[4] = DRUGMATRIX: Phosphodiesterase PDE3 enzyme inhibition (substrate: [3H]cAMP + cAMP); assay type: tissue-based, Homo sapiens; details: platelet; Not Active = under 50% inhibition at 10 µM
[5] = target: T2, 5-hydroxytryptamine receptor 1A (Rattus norvegicus, UniProt P19327); assay type: cell membranes, CHO-K1, Membrane; details: for IC50: cho-k1; on all read-outs here: in other assays of this panel Not Active means under 50% inhibition at 10 µM
T2 sequence (P19327 whole entry): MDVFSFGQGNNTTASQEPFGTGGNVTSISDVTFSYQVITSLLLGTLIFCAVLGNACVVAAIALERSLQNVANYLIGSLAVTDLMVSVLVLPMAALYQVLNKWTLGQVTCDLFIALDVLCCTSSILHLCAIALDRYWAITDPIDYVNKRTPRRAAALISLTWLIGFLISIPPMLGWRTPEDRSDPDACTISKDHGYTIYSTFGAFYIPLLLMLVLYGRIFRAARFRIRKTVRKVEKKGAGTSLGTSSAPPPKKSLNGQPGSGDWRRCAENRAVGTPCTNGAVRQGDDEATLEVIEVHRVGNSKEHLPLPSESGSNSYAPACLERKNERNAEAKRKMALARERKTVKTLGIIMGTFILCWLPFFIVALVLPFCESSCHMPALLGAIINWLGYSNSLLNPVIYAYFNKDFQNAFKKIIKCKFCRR

Sequence of Substance-P receptor (P25103 whole entry): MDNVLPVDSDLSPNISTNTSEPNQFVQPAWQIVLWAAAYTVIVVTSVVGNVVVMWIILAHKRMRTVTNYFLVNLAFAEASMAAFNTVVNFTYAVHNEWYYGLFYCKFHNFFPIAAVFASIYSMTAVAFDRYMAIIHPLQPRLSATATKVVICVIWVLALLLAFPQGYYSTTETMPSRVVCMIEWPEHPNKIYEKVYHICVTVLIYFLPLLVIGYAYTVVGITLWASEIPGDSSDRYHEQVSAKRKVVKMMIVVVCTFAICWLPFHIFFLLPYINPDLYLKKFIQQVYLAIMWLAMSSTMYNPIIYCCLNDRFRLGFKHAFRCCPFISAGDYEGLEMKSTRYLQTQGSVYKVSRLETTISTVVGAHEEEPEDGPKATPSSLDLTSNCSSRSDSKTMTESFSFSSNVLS
Sequence of Melanocortin receptor 4 (P32245 whole entry): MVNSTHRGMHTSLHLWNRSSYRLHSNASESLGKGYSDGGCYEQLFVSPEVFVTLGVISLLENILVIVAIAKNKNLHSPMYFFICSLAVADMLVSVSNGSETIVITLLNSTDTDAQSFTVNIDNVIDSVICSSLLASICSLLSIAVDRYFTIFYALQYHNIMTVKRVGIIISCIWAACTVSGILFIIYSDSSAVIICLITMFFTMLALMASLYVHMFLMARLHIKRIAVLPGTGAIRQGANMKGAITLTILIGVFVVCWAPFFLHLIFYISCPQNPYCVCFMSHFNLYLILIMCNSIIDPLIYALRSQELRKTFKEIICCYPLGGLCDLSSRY

In the case of `c1ccc(Cn2ccnc2)cc1`, the IC50 [1] was “Not Active”, the Ki [1] was “Not Active” and the IC50 [2] was “Not Active”. The Ki [2] was “Not Active”, the IC50 (Substance-P receptor) was “Not Active” and the IC50 [3] was “Not Active”. For the same compound, the IC50 (Melanocortin receptor 4) was “Not Active”, the IC50 [4] was “Not Active” and the Ki [4] was “Not Active”. For the same compound, the IC50 [5] was “Not Active”.
In the case of `CC(C)(C#N)c1cc(Cn2cncn2)cc(C(C)(C)C#N)c1` [ANASTROZOLE], the IC50 [1] was “Not Active”, the Ki [1] was “Not Active” and the IC50 [2] was “Not Active”. The Ki [2] was “Not Active”, the IC50 (Substance-P receptor) was “Not Active” and the IC50 [3] was “Not Active”. The IC50 (Melanocortin receptor 4) was “Not Active”, the IC50 [4] was “Not Active” and the Ki [4] was “Not Active”. For the same compound, the IC50 [5] was “Not Active”.
In the case of `COc1cc(/C=C/C(=O)O)ccc1O` [FERULATE], the IC50 [1] was “Not Active”, the Ki [1] was “Not Active” and the IC50 [2] was “Not Active”. For the same compound, the Ki [2] was “Not Active”, the IC50 (Substance-P receptor) was “Not Active” and the IC50 [3] was “Not Active”. The IC50 (Melanocortin receptor 4) was “Not Active”, the IC50 [4] was “Not Active” and the Ki [4] was “Not Active”. For the same compound, the IC50 [5] was “Not Active”.
In the case of `COc1cc([C@@H]2c3cc4c(cc3[C@H](O)[C@H]3COC(=O)[C@H]23)OCO4)cc(OC)c1OC` [PODOFILOX], the IC50 [1] was “Not Active”, the Ki [1] was “Not Active” and the IC50 [2] was “Not Active”. For the same compound, the Ki [2] was “Not Active”, the IC50 (Substance-P receptor) was “Not Active” and the IC50 [3] was “Not Active”. For the same compound, the IC50 (Melanocortin receptor 4) was “Not Active”, the IC50 [4] was “Not Active” and the Ki [4] was “Not Active”. The IC50 [5] was “Not Active”.
With `C[N+](C)(C)CCOC(N)=O.[Cl-]` [CARBACHOL] the IC50 [1] was “Not Active”, the Ki [1] was “Not Active” and the IC50 [2] was “Not Active”. For the same compound, the Ki [2] was “Not Active”, the IC50 (Substance-P receptor) was “Not Active” and the IC50 [3] was “Not Active”. For the same compound, the IC50 (Melanocortin receptor 4) was “Not Active”, the IC50 [4] was “Not Active” and the Ki [4] was “Not Active”. For the same compound, the IC50 [5] was “Not Active”.
In the case of `CC1(COc2ccc(CC3SC(=O)NC3=O)cc2)CCCCC1` (stereo unspecified) [CIGLITAZONE], the IC50 [1] was “Not Active”, the Ki [1] was “Not Active” and the IC50 [2] was “Not Active”. The Ki [2] was “Not Active”, the IC50 (Substance-P receptor) was “Not Active” and the IC50 [3] was “Not Active”. The IC50 (Melanocortin receptor 4) was “Not Active”, the IC50 [4] was “Not Active” and the Ki [4] was “Not Active”. For the same compound, the IC50 [5] was “Not Active”.
For `Oc1ncnc2[nH]ncc12` [ALLOPURINOL], the IC50 [1] was “Not Active”, the Ki [1] was “Not Active” and the IC50 [2] was “Not Active”. The Ki [2] was “Not Active”, the IC50 (Substance-P receptor) was “Not Active” and the IC50 [3] was “Not Active”. The IC50 (Melanocortin receptor 4) was “Not Active”, the IC50 [4] was “Not Active” and the Ki [4] was “Not Active”. For the same compound, the IC50 [5] was “Not Active”.
With `Cc1cc(C(C)(C)C)c(O)c(C)c1CC1=NCCN1` [OXYMETAZOLINE] the IC50 [1] was “Not Active”, the Ki [1] was “Not Active” and the IC50 [2] was “Not Active”. The Ki [2] was “Not Active”, the IC50 (Substance-P receptor) was “Not Active” and the IC50 [3] was “Not Active”. For the same compound, the IC50 (Melanocortin receptor 4) was “Not Active”, the IC50 [4] was “Not Active” and the Ki [4] was “Not Active”. For the same compound, the pIC50 ([5]; read-out: IC50) was 8.25 and the pKi ([5]; read-out: Ki) was 8.49.
In the case of `CC(C)Cn1cnc2c(N)nc3ccccc3c21` [IMIQUIMOD], the IC50 [1] was “Not Active”, the Ki [1] was “Not Active” and the IC50 [2] was “Not Active”. For the same compound, the Ki [2] was “Not Active”, the IC50 (Substance-P receptor) was “Not Active” and the IC50 [3] was “Not Active”. The IC50 (Melanocortin receptor 4) was “Not Active”, the IC50 [4] was “Not Active” and the Ki [4] was “Not Active”. The IC50 [5] was “Not Active”.
In the case of `NS(=O)(=O)c1cc(C(=O)O)c(NCc2ccco2)cc1Cl` [FUROSEMIDE], the IC50 [1] was “Not Active”, the Ki [1] was “Not Active” and the IC50 [2] was “Not Active”. The Ki [2] was “Not Active”, the IC50 (Substance-P receptor) was “Not Active” and the IC50 [3] was “Not Active”. For the same compound, the IC50 (Melanocortin receptor 4) was “Not Active”, the IC50 [4] was “Not Active” and the Ki [4] was “Not Active”. The IC50 [5] was “Not Active”.
